Reference: US9163013B2, “Use of 1H-indazole-3-carboxamide compounds as glycogen synthase kinase 3 beta inhibitors” (AZIENDE CHIMICHE RIUNITE ANGELINI FRANCESCO A.C.R.A.F. …, priority 2012, dated 2015)
Counter-ions that a name gives are not always drawn.

Key:
Assay in all cases: Kinase selectivity panel
Assay type in all cases: biochemical
GSK3beta (h) = GSK3beta (h) (Homo sapiens (Human), UniProt P49841); conditions: for inhibition at 10 µM: duplicate, read-out: % inhibition of control values, GSK3beta (h); for Selectivity for GSK-3β compared to the other kinases of the panel: panel of 60 kinases, 10 μM
Method: (§1) (a) Compound 1 was tested against a panel of 60 kinases in order to assess its selectivity. The assays were chosen taking into consideration the diversity of assay families.
(§2) Human recombinant kinases were incubated in the presence of specific peptide substrates plus ATP for different times (10, 15, 30, 60 or 90 minutes) at 22° C. Phosphorylated substrate was detected by LANCE or HTRF technology (CISBIO, MA, USA).
(§3) Compound 1 was tested at 10 μM in duplicate.
(§4) The results are expressed as a percent of inhibition of control specific activity obtained in the presence of the test compound 1 and are reported in the following Table 5.
(§5) (b) Compounds 7, 12, 21 and 24 were tested against the same panel of 60 kinases under the same conditions described above for compound 1.
(§6) The results are expressed as a percent of inhibition of control specific activity obtained in the presence of the test compounds and are reported in the following Table 6.

DCAMKL1 (h) = DCAMKL1 (h) (Homo sapiens (Human), UniProt O15075); conditions: duplicate, read-out: % inhibition of control values, DCAMKL1 (h)
Method: as §1, §2, §3, §4, §5, §6

AurA/Aur2 kinase (h) = AurA/Aur2 kinase (h) (Homo sapiens (Human), UniProt O14965); conditions: duplicate, read-out: % inhibition of control values, AurA/Aur2 kinase (h)
Sequence of AurA/Aur2 kinase (h) (O14965 whole entry): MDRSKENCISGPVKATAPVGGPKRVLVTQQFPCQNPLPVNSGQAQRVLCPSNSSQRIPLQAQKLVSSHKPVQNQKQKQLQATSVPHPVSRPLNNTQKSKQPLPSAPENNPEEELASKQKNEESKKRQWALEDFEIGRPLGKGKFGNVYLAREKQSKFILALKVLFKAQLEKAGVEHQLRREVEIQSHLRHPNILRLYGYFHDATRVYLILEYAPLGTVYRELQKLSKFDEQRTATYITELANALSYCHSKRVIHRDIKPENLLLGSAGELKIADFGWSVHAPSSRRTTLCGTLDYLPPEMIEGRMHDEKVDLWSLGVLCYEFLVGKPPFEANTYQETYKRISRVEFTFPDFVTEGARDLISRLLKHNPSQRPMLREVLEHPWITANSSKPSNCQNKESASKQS
Method: as §1, §2, §3, §4, §5, §6

PDK1 (h) = PDK1 (h) (Homo sapiens (Human), UniProt O15530); conditions: duplicate, read-out: % inhibition of control values, PDK1 (h)
Method: as §1, §2, §3, §4, §5, §6

CHK1 (h) = CHK1 (h) (Homo sapiens (Human), UniProt O14757); conditions: duplicate, read-out: % inhibition of control values, CHK1 (h)
Method: as §1, §2, §3, §4, §5, §6

Akt1/PKBalpha (h) = Akt1/PKBalpha (h) (Homo sapiens (Human), UniProt P31749); conditions: duplicate, read-out: % inhibition of control values, Akt1/PKBalpha (h)
Method: as §1, §2, §3, §4, §5, §6

PKA (h) = PKA (h) (Homo sapiens (Human), UniProt P17612); conditions: duplicate, read-out: % inhibition of control values, PKA (h)
Method: as §1, §2, §3, §4, §5, §6

PKCbeta 1 (h) = PKCbeta 1 (h) (Homo sapiens (Human), UniProt P05771); conditions: duplicate, read-out: % inhibition of control values, PKCbeta 1 (h)
Method: as §1, §2, §3, §4, §5, §6

IGF1R kinase (h) = IGF1R kinase (h) (Homo sapiens (Human), UniProt P08069); conditions: duplicate, read-out: % inhibition of control values, IGF1R kinase (h)
Method: as §1, §2, §3, §4, §5, §6

IRK (h) (InsR) = IRK (h) (InsR) (Homo sapiens (Human), UniProt P06213); conditions: duplicate, read-out: % inhibition of control values, IRK (h) (InsR)
Method: as §1, §2, §3, §4, §5, §6

MAPKAPK2 (h) = MAPKAPK2 (h) (Homo sapiens (Human), UniProt P49137); conditions: duplicate, read-out: % inhibition of control values, MAPKAPK2 (h)
Method: as §1, §2, §3, §4, §5, §6

DLK1 (h) (MAP3K12) = DLK1 (h) (MAP3K12) (Homo sapiens (Human), UniProt Q12852); conditions: duplicate, read-out: % inhibition of control values, DLK1 (h) (MAP3K12)
Method: as §1, §2, §3, §4, §5, §6

CK1alpha (h) = CK1alpha (h) (Homo sapiens (Human), UniProt P48729); conditions: duplicate, read-out: % inhibition of control values, CK1alpha (h)
Sequence of CK1alpha (h) (P48729 whole entry): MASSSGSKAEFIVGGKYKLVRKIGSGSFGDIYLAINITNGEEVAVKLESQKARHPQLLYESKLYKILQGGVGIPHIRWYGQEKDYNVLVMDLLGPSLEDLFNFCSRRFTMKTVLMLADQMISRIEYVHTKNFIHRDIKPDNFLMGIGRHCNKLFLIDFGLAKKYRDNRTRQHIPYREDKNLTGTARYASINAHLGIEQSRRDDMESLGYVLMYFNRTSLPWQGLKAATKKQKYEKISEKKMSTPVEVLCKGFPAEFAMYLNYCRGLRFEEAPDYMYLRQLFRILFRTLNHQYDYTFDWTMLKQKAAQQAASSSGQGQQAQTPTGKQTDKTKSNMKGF
Method: as §1, §2, §3, §4, §5, §6

IRAK4 (h) = IRAK4 (h) (Homo sapiens (Human), UniProt Q9NWZ3); conditions: duplicate, read-out: % inhibition of control values, IRAK4 (h)
Method: as §1, §2, §3, §4, §5, §6

JAK2 (h) = JAK2 (h) (Homo sapiens (Human), UniProt O60674); conditions: duplicate, read-out: % inhibition of control values, JAK2 (h)
Sequence of JAK2 (h) (O60674 whole entry): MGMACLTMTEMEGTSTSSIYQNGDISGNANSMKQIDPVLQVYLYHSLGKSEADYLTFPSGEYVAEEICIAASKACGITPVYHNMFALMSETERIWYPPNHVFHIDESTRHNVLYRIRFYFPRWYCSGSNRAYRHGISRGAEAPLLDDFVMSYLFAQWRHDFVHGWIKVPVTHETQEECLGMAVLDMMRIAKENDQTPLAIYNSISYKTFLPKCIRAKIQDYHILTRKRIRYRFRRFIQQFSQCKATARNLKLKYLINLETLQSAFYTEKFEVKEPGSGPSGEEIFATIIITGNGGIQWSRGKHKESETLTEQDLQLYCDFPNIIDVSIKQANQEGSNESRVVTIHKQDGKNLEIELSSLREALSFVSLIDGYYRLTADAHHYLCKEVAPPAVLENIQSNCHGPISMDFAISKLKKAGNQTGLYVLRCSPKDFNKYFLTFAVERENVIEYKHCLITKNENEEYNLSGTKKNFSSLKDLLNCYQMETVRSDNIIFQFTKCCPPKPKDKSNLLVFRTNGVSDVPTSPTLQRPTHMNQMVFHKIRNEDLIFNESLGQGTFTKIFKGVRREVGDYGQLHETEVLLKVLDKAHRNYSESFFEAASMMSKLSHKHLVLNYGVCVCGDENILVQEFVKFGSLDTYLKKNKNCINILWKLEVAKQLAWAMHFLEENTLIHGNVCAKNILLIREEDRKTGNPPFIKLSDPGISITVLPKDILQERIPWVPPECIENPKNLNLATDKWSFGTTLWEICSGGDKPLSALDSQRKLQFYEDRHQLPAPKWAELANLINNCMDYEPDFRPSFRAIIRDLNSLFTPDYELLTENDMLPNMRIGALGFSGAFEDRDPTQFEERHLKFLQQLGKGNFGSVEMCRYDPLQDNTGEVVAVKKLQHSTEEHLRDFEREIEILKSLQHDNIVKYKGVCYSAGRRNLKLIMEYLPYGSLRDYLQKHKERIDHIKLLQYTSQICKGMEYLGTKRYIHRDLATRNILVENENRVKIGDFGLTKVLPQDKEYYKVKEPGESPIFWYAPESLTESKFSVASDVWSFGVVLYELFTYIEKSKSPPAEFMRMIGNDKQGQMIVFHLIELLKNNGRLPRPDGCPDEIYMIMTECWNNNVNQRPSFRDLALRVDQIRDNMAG
Method: as §1, §2, §3, §4, §5, §6

GRK3/BARK2 (h) (ADRBK2) = GRK3/BARK2 (h) (ADRBK2) (Homo sapiens (Human), UniProt P35626); conditions: duplicate, read-out: % inhibition of control values, GRK3/BARK2 (h) (ADRBK2)
Method: as §1, §2, §3, §4, §5, §6

PhKgamma 2 (h) = PhKgamma 2 (h) (Homo sapiens (Human), UniProt P15735); conditions: duplicate, read-out: % inhibition of control values, PhKgamma 2 (h)
Sequence of PhKgamma 2 (h) (P15735 whole entry): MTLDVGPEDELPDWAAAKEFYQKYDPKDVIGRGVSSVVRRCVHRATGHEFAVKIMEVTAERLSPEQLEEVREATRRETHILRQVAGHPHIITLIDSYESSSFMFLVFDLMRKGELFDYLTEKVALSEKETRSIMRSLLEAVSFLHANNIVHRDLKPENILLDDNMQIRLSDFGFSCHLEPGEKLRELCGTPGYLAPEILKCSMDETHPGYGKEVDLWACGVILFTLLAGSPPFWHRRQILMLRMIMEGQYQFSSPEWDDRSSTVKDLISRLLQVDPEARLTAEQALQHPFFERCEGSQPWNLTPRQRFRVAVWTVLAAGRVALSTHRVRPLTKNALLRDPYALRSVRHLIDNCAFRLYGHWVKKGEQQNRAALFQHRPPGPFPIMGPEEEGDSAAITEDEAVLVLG
Method: as §1, §2, §3, §4, §5, §6

FGFR1 kinase (h) = FGFR1 kinase (h) (Homo sapiens (Human), UniProt P11362); conditions: duplicate, read-out: % inhibition of control values, FGFR1 kinase (h)
Method: as §1, §2, §3, §4, §5, §6

PAK1 (h) = PAK1 (h) (Homo sapiens (Human), UniProt Q13153); conditions: duplicate, read-out: % inhibition of control values, PAK1 (h)
Sequence of PAK1 (h) (Q13153 whole entry): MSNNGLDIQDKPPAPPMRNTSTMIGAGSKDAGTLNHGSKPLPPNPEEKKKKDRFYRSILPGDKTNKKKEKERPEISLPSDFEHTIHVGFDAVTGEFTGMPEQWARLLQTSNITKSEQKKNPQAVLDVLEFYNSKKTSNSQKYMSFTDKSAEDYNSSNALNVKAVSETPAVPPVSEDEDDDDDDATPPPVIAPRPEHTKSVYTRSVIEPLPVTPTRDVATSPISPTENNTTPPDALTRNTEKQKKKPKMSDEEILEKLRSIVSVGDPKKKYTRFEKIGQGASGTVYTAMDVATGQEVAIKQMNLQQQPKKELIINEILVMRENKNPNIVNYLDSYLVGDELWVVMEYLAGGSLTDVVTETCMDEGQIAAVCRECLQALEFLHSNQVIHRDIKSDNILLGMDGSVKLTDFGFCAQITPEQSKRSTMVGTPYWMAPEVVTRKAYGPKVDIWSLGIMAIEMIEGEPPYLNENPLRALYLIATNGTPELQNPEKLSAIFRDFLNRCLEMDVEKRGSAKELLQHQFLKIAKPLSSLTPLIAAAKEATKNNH
Method: as §1, §2, §3, §4, §5, §6

MYT1 kinase (h) = MYT1 kinase (h) (Homo sapiens (Human), UniProt Q99640); conditions: duplicate, read-out: % inhibition of control values, MYT1 kinase (h)
Method: as §1, §2, §3, §4, §5, §6

Ret kinase (h) = Ret kinase (h) (Homo sapiens (Human), UniProt P07949); conditions: duplicate, read-out: % inhibition of control values, Ret kinase (h)
Method: as §1, §2, §3, §4, §5, §6

HGK (h) (MAP4K4) = HGK (h) (MAP4K4) (Homo sapiens (Human), UniProt O95819); conditions: duplicate, read-out: % inhibition of control values, HGK (h) (MAP4K4)
Method: as §1, §2, §3, §4, §5, §6

AurB/Aur1 kinase (h) = AurB/Aur1 kinase (h) (Homo sapiens (Human), UniProt Q96GD4); conditions: duplicate, read-out: % inhibition of control values, AurB/Aur1 kinase (h)
Sequence of AurB/Aur1 kinase (h) (Q96GD4 whole entry): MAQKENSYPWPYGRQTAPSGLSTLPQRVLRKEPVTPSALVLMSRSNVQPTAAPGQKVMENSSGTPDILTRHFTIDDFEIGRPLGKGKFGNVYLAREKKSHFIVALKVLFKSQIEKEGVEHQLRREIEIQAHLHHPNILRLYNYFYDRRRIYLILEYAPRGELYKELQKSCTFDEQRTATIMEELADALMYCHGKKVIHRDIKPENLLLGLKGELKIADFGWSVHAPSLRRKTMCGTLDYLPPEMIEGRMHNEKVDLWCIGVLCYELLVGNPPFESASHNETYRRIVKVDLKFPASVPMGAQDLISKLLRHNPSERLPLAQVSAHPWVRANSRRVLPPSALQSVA
Method: as §1, §2, §3, §4, §5, §6

TRKA (h) = TRKA (h) (Homo sapiens (Human), UniProt P04629); conditions: duplicate, read-out: % inhibition of control values, TRKA (h)
Sequence of TRKA (h) (P04629 33-796): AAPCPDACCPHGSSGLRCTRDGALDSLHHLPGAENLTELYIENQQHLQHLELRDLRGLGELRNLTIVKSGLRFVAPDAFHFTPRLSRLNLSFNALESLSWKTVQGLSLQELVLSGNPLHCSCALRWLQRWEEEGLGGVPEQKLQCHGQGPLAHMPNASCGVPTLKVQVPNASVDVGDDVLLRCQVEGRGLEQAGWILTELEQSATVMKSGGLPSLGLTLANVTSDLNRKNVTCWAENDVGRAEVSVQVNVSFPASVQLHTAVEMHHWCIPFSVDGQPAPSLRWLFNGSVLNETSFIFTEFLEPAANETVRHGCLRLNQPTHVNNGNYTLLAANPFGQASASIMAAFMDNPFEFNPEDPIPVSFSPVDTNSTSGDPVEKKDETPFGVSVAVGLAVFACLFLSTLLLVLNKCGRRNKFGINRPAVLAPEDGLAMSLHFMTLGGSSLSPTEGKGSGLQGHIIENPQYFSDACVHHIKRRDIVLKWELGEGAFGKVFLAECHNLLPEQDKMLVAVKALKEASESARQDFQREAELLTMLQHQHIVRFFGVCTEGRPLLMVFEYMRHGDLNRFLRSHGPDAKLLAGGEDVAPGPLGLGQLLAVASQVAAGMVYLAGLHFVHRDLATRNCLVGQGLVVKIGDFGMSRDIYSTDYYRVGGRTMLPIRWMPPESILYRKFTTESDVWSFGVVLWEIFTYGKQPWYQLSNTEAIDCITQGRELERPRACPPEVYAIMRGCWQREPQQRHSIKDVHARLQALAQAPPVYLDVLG
Method: as §1, §2, §3, §4, §5, §6

CDC2/CDK1 (h) (cycB) = CDC2/CDK1 (h) (cycB) (Homo sapiens (Human), UniProt P06493); conditions: duplicate, read-out: % inhibition of control values, CDC2/CDK1 (h) (cycB)
Sequence of CDC2/CDK1 (h) (cycB) (P06493 whole entry): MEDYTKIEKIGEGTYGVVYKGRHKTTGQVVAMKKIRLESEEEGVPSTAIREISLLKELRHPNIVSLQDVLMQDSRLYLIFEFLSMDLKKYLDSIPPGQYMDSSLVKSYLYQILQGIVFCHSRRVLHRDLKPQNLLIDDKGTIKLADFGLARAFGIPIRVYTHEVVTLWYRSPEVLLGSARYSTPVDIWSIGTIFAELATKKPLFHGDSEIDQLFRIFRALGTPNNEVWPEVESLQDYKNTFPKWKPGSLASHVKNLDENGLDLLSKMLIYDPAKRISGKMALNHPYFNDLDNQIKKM
Sequence of CDC2/CDK1 (h) (cycB) (P14635 whole entry partner): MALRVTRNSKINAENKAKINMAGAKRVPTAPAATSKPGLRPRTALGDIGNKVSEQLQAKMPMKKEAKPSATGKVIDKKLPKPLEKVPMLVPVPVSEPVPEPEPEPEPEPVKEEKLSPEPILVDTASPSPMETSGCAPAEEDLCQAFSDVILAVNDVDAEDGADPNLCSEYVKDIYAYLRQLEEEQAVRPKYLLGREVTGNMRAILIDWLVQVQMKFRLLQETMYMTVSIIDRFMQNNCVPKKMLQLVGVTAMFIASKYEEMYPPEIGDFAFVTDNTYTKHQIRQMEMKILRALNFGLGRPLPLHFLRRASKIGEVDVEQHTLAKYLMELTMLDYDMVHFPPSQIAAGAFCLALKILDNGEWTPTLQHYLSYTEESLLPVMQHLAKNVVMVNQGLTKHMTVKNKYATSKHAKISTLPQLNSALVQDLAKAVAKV
Method: as §1, §2, §3, §4, §5, §6

| inhibition at 10 µM (GSK3beta (h)) | Selectivity for GSK-3β compared to the other kinases of the panel (GSK3beta (h)) | inhibition at 10 µM (DCAMKL1 (h)) | inhibition at 10 µM (AurA/Aur2 kinase (h)) | inhibition at 10 µM (PDK1 (h)) | inhibition at 10 µM (CHK1 (h)) | inhibition at 10 µM (Akt1/PKBalpha (h)) | inhibition at 10 µM (PKA (h)) | inhibition at 10 µM (PKCbeta 1 (h)) | inhibition at 10 µM (IGF1R kinase (h)) | inhibition at 10 µM (IRK (h) (InsR)) | inhibition at 10 µM (MAPKAPK2 (h)) | inhibition at 10 µM (DLK1 (h) (MAP3K12)) | inhibition at 10 µM (CK1alpha (h)) | inhibition at 10 µM (IRAK4 (h)) | inhibition at 10 µM (JAK2 (h)) | inhibition at 10 µM (GRK3/BARK2 (h) (ADRBK2)) | inhibition at 10 µM (PhKgamma 2 (h)) | inhibition at 10 µM (FGFR1 kinase (h)) | inhibition at 10 µM (PAK1 (h)) | Compound | other results |
| --- | --- | --- | --- | --- | --- | --- | --- | --- | --- | --- | --- | --- | --- | --- | --- | --- | --- | --- | --- | --- | --- |
| 92% | good selectivity profile | 4% | 1% | 8% | 12% | 7% | 0% | 9% | 5% | 18% | 0% | 10% | 15% | 0% | 0% | 8% | 6% | 6% | 4% | COc1ccc2[nH]nc(C(=O)NCC3CCN(CCc4ccc(O)cc4)CC3)c2c1 [Compound 1, N-({1-[2-(4-hydroxyphenyl)ethyl]-piperidin-4-yl}methyl)-5-methoxy-1H-indazole-3-carboxamide] | inhibition at 10 µM (MYT1 kinase (h)): 1%; inhibition at 10 µM (Ret kinase (h)): 1%; inhibition at 10 µM (HGK (h) (MAP4K4)): 17%; inhibition at 10 µM (AurB/Aur1 kinase (h)): 11%; inhibition at 10 µM (TRKA (h)): 10%; inhibition at 10 µM (CDC2/CDK1 (h) (cycB)): 31% |
| 94% | good selectivity profile | 0% | 4% | 0% | 0% | 0% | 0% | 0% | 0% | 3% | 0% | 0% | 0% | 1% | 0% | 0% | 0% | 0% | 1% | COc1ccc2[nH]nc(C(=O)NCC3CCN(Cc4ccc(C(=O)O)o4)CC3)c2c1 [Compound 24, 5-{[4-({[(5-Methoxy-1H-indazol-3-yl)carbonyl]amino}methyl)piperidin-1-yl]methyl}furan-2-carboxylic acid] | inhibition at 10 µM (MYT1 kinase (h)): 0%; inhibition at 10 µM (Ret kinase (h)): 0%; inhibition at 10 µM (HGK (h) (MAP4K4)): 19%; inhibition at 10 µM (AurB/Aur1 kinase (h)): 0%; inhibition at 10 µM (TRKA (h)): 1%; inhibition at 10 µM (CDC2/CDK1 (h) (cycB)): 10% |

| Compound | inhibition at 10 µM (GSK3beta (h)) | Selectivity for GSK-3β compared to the other kinases of the panel (GSK3beta (h)) | inhibition at 10 µM (DCAMKL1 (h)) | inhibition at 10 µM (AurA/Aur2 kinase (h)) | inhibition at 10 µM (PDK1 (h)) | inhibition at 10 µM (CHK1 (h)) | inhibition at 10 µM (Akt1/PKBalpha (h)) | inhibition at 10 µM (PKA (h)) | inhibition at 10 µM (PKCbeta 1 (h)) | inhibition at 10 µM (IGF1R kinase (h)) | inhibition at 10 µM (IRK (h) (InsR)) | inhibition at 10 µM (MAPKAPK2 (h)) | inhibition at 10 µM (DLK1 (h) (MAP3K12)) | inhibition at 10 µM (CK1alpha (h)) | inhibition at 10 µM (IRAK4 (h)) | inhibition at 10 µM (JAK2 (h)) | inhibition at 10 µM (GRK3/BARK2 (h) (ADRBK2)) | inhibition at 10 µM (PhKgamma 2 (h)) | inhibition at 10 µM (FGFR1 kinase (h)) | inhibition at 10 µM (PAK1 (h)) | other results |
| --- | --- | --- | --- | --- | --- | --- | --- | --- | --- | --- | --- | --- | --- | --- | --- | --- | --- | --- | --- | --- | --- |
| COc1ccncc1-c1ccc2[nH]nc(C(=O)NCC3CCN(Cc4ccc(C(=O)O)o4)CC3)c2c1 [Compound 21, 5-({4-[({[5-(4-Methoxypyridin-3-yl)-1H-indazol-3-yl]carbonyl}amino)methyl]piperidin-1-yl}methyl)furan-2-carboxylic acid formate] | 96% | good affinity to GSK-3β when compared to most of other kinases of the same family | 0% | 30% | 0% | 1% | 0% | 3% | 0% | 0% | 0% | 0% | 46% | 2% | 18% | 2% | 4% | 0% | 13% | 4% | inhibition at 10 µM (MYT1 kinase (h)): 0%; inhibition at 10 µM (Ret kinase (h)): 0%; inhibition at 10 µM (HGK (h) (MAP4K4)): 99%; inhibition at 10 µM (AurB/Aur1 kinase (h)): 10%; inhibition at 10 µM (TRKA (h)): 4%; inhibition at 10 µM (CDC2/CDK1 (h) (cycB)): 99% |
